Measurements taken from the supplement of paper PMC5662764.

Experiments:
Assay in all cases: normalised growth rate inhibition (GR value) relative to DMSO control (GR (1 = untreated growth, 0 = cytostasis, <0 = cytotoxic)); higher = less growth inhibition
Details in all cases: 72 h
BT20 = tested on: BT20
In short: (§1)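 Six breast cell lines were seeded in 384-well plates and dosed 24 h later with drugs at 0.04–10 µM for 72 h. Cells were stained with Hoechst 33342 and Fixable Far Red Dead Cell Stain, fixed in 3% formaldehyde and imaged on an Operetta; viable cells were counted in Columbus. Normalised growth rate inhibition was computed from counts relative to same-plate DMSO wells and a day-0 plate. Technical plate replicates (generally three) were averaged.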

HS578T = tested on: HS578T
In short: as §1

MCF10A = tested on: MCF10A
In short: as §1

MCF7 = tested on: MCF7
In short: as §1

MDAMB231 = tested on: MDAMB231
In short: as §1

SKBR3 = tested on: SKBR3
In short: as §1

O=c1cc(N2CCOCC2)oc2c(-c3cccc4c3sc3ccccc34)cccc12 [NU-7441]
normalised growth rate inhibition
Details | BT20 | HS578T | MCF7 | MCF10A | MDAMB231 | SKBR3
0.04 µM | 1.06 | 0.974 | 1 | 1.022 | 1.02 | 1.04
0.12 µM | 1.02 | 0.9337 | 0.955 | 1.001 | 0.955 | 0.957
0.37 µM | 0.998 | 0.911 | 0.937 | 0.9817 | 0.892 | 0.868
1.11 µM | 0.958 | 0.789 | 0.892 | 0.957 | 0.843 | 0.714
3.33 µM | 0.853 | 0.612 | 0.747 | 0.894 | 0.579 | 0.644
10 µM | 0.263 | 0.144 | 0.241 | 0.357 | 0.147 | 0.199
